What all share (type): functional
The subject of assay [1] is Macrophage. Put plainly: Antiinflammatory activity in Escherichia coli O6:K2:H1-induced human M2 macrophage assessed as change in 5-HEPE level at 1 uM preincubated for 10 mins followed by Escherichia coli O6:K2:H1-stimulation and measured after 180 mins by UPLC-MS/MS analysis relative to control.
In assay [2] the test system is Macrophage. Nature of the assay: Antiinflammatory activity in Escherichia coli O6:K2:H1-induced human M2 macrophage assessed as change in 12-HETE level at 1 uM preincubated for 10 mins followed by Escherichia coli O6:K2:H1-stimulation and measured after 180 mins by UPLC-MS/MS analysis relative to control.
Assay [3] relates to Macrophage. Nature of the assay: Antiinflammatory activity in Escherichia coli O6:K2:H1-induced human M1 macrophage assessed as change in 12-HETE level at 10 uM preincubated for 10 mins followed by Escherichia coli O6:K2:H1-stimulation and measured after 180 mins by UPLC-MS/MS analysis relative to control.
The subject of assay [4] is Macrophage. Put plainly: Antiinflammatory activity in Escherichia coli O6:K2:H1-induced human M1 macrophage assessed as change in 5-HETE level at 1 uM preincubated for 10 mins followed by Escherichia coli O6:K2:H1-stimulation and measured after 180 mins by UPLC-MS/MS analysis relative to control.
Assay [5] has as its system Macrophage. Nature of the assay: Antiinflammatory activity in Escherichia coli O6:K2:H1-induced human M2 macrophage assessed as change in 5.15-dlHETE level at 1 uM preincubated for 10 mins followed by Escherichia coli O6:K2:H1-stimulation and measured after 180 mins by UPLC-MS/MS analysis relative to control.
In assay [6] the test system is Macrophage. Put plainly: Antiinflammatory activity in Escherichia coli O6:K2:H1-induced human M1 macrophage assessed as change in PGE2 level at 10 uM preincubated for 10 mins followed by Escherichia coli O6:K2:H1-stimulation and measured after 180 mins by UPLC-MS/MS analysis relative to control.
Assay [7] deals with Macrophage. Nature of the assay: Antiinflammatory activity in Escherichia coli O6:K2:H1-induced human M1 macrophage assessed as change in PGE2 level at 1 uM preincubated for 10 mins followed by Escherichia coli O6:K2:H1-stimulation and measured after 180 mins by UPLC-MS/MS analysis relative to control.
In assay [8] the test system is Macrophage. Nature of the assay: Antiinflammatory activity in Escherichia coli O6:K2:H1-induced human M1 macrophage assessed as change in 5-HEPE level at 1 uM preincubated for 10 mins followed by Escherichia coli O6:K2:H1-stimulation and measured after 180 mins by UPLC-MS/MS analysis relative to control.
In assay [9] the test system is Macrophage. Put plainly: Antiinflammatory activity in Escherichia coli O6:K2:H1-induced human M1 macrophage assessed as change in 15-HETE level at 10 uM preincubated for 10 mins followed by Escherichia coli O6:K2:H1-stimulation and measured after 180 mins by UPLC-MS/MS analysis relative to control.
Assay [10] concerns Macrophage. Nature of the assay: Antiinflammatory activity in Escherichia coli O6:K2:H1-induced human M1 macrophage assessed as change in PGD2 level at 10 uM preincubated for 10 mins followed by Escherichia coli O6:K2:H1-stimulation and measured after 180 mins by UPLC-MS/MS analysis relative to control.
The test system of assay [11] is Macrophage. Put plainly: Antiinflammatory activity in Escherichia coli O6:K2:H1-induced human M2 macrophage assessed as change in 18-HEPE level at 10 uM preincubated for 10 mins followed by Escherichia coli O6:K2:H1-stimulation and measured after 180 mins by UPLC-MS/MS analysis relative to control.
Assay [12] deals with Macrophage. Nature of the assay: Antiinflammatory activity in Escherichia coli O6:K2:H1-induced human M1 macrophage assessed as change in 12-HEPE level at 10 uM preincubated for 10 mins followed by Escherichia coli O6:K2:H1-stimulation and measured after 180 mins by UPLC-MS/MS analysis relative to control.
Assay [13] has as its system Macrophage. Nature of the assay: Antiinflammatory activity in Escherichia coli O6:K2:H1-induced human M2 macrophage assessed as change in 17-HDHA level at 1 uM preincubated for 10 mins followed by Escherichia coli O6:K2:H1-stimulation and measured after 180 mins by UPLC-MS/MS analysis relative to control.
Assay [14] deals with Macrophage. Nature of the assay: Antiinflammatory activity in Escherichia coli O6:K2:H1-induced human M1 macrophage assessed as change in 5-HEPE level at 10 uM preincubated for 10 mins followed by Escherichia coli O6:K2:H1-stimulation and measured after 180 mins by UPLC-MS/MS analysis relative to control.
Assay [15] relates to Macrophage. Put plainly: Antiinflammatory activity in Escherichia coli O6:K2:H1-induced human M1 macrophage assessed as change in LTB4 level at 10 uM preincubated for 10 mins followed by Escherichia coli O6:K2:H1-stimulation and measured after 180 mins by UPLC-MS/MS analysis relative to control.
In assay [16] the test system is Macrophage. Nature of the assay: Antiinflammatory activity in Escherichia coli O6:K2:H1-induced human M2 macrophage assessed as change in 15-HEPE level at 1 uM preincubated for 10 mins followed by Escherichia coli O6:K2:H1-stimulation and measured after 180 mins by UPLC-MS/MS analysis relative to control.
Assay [17] deals with Macrophage. Put plainly: Antiinflammatory activity in Escherichia coli O6:K2:H1-induced human M1 macrophage assessed as change in 14-HDHA level at 10 uM preincubated for 10 mins followed by Escherichia coli O6:K2:H1-stimulation and measured after 180 mins by UPLC-MS/MS analysis relative to control.
Assay [18] has as its system Macrophage. Nature of the assay: Antiinflammatory activity in Escherichia coli O6:K2:H1-induced human M1 macrophage assessed as change in 17-HDHA level at 10 uM preincubated for 10 mins followed by Escherichia coli O6:K2:H1-stimulation and measured after 180 mins by UPLC-MS/MS analysis relative to control.
The test system of assay [19] is Macrophage. Nature of the assay: Antiinflammatory activity in Escherichia coli O6:K2:H1-induced human M1 macrophage assessed as change in PGD2 level at 1 uM preincubated for 10 mins followed by Escherichia coli O6:K2:H1-stimulation and measured after 180 mins by UPLC-MS/MS analysis relative to control.
Assay [20] deals with Macrophage. Nature of the assay: Antiinflammatory activity in Escherichia coli O6:K2:H1-induced human M1 macrophage assessed as change in 7-HDHA level at 10 uM preincubated for 10 mins followed by Escherichia coli O6:K2:H1-stimulation and measured after 180 mins by UPLC-MS/MS analysis relative to control.
Assay [21] deals with Macrophage. Put plainly: Antiinflammatory activity in Escherichia coli O6:K2:H1-induced human M2 macrophage assessed as change in […] level at 1 uM preincubated for 10 mins followed by Escherichia coli O6:K2:H1-stimulation and measured after 180 mins by UPLC-MS/MS analysis relative to control.
The subject of assay [22] is Macrophage. Nature of the assay: Antiinflammatory activity in Escherichia coli O6:K2:H1-induced human M1 macrophage assessed as change in 18-HEPE level at 10 uM preincubated for 10 mins followed by Escherichia coli O6:K2:H1-stimulation and measured after 180 mins by UPLC-MS/MS analysis relative to control.
The subject of assay [23] is Macrophage. Put plainly: Antiinflammatory activity in Escherichia coli O6:K2:H1-induced human M1 macrophage assessed as change in PGF2alpha level at 10 uM preincubated for 10 mins followed by Escherichia coli O6:K2:H1-stimulation and measured after 180 mins by UPLC-MS/MS analysis relative to control.
Assay [24] deals with Macrophage. Nature of the assay: Antiinflammatory activity in Escherichia coli O6:K2:H1-induced human M2 macrophage assessed as change in PGF2alpha level at 1 uM preincubated for 10 mins followed by Escherichia coli O6:K2:H1-stimulation and measured after 180 mins by UPLC-MS/MS analysis relative to control.

Here are results for 1 compound from ChEMBL document CHEMBL4342480, “Design of Dual Inhibitors of Soluble Epoxide Hydrolase and LTA4 Hydrolase” (ACS Med Chem Lett, 2020).

Regarding `O=C(Cc1ccc(Oc2nc3ccccc3s2)cc1F)NCCc1ccc(F)cc1`, the Activity in assay [1] is 93%; in [2] it was 87%; in [3], 131%; in assay [4], 164%; in assay [5], 93%; in assay [6], 77%. Further, the Activity is 109% in assay [7]; 102% in [8]; 151% in assay [9]; 97% in assay [10]; 96% in [11]; 113% in assay [12]. Also, the Activity in [13] is recorded as 106%; in assay [14], 65%; in assay [15], 11%; in assay [16], 81%; in [17], 114%; in assay [18], 269%. For the same compound, the Activity turned out to be 127% in [19]; 66% in assay [20]; 64% in [21]; 73% in assay [22]; 80% in assay [23]; 63% in [24].
